Where two headings read alike, the source gives them in different places. No end group written: not given here.
Tests used:
C57/B6 mice [1] = assay: Doxorubicin-induced cardiomyopathy in adult mice, heart weight; assay type: in vivo; conditions: for average heart weight: sixth day
Protocol: (§1) To evaluate the effects of the long-acting stable analog on heart failure, we treated 8-week-old C57/B6 mice with doxorubicin (10 mg/kg body weight) to induce cardiomyopathy. After the injection of doxorubicin, the animals were injected with wild-type ADM or the long-acting stable analog twice daily. After five days of treatment, the animals were sacrificed, and hearts were collected for weight determination individually. In addition, we collected blood samples for the determination of aspartate aminotransferase activity. Sham adult mice at the same ages were used as normal controls.

[2] = system: normal pregnant Sprague Dawley rats; assay: Blood pressure after bolus IP injection in instrumented normal pregnant Sprague Dawley rats; assay type: in vivo, rat; conditions: for duration of sustained reduction of blood pressure (hypotensive effect): bolus IP injection, 100 nmoles/kg, normal pregnant Sprague Dawley rats
Source text: (§2) Bolus IP injection of the long-acting stable analog (100 nmoles/kg) led to a sustained reduction of blood pressure for 4 hr in normal pregnant Sprague Dawley rats, whereas the hypotensive effects of wild-type ADM disappeared within 2 hr (FIG. 1a). In addition, we compared the blood pressure-lowering effect of the long-acting stable analog in pregnant Sprague Dawley rats and pregnant spontaneous hypertensive rats (SHR). […] This characteristic not only allows less frequent dosing in clinical condition but also increases the therapeutic index of long-acting CLR/RAMP receptor agonists.

C57/B6 mice [3] = assay type: in vivo
Protocol: as §1
In a separate series of study, we evaluated the effects of stable analog on blood aspartate aminotransferase levels (FIG. 4b).

RUPP pregnant rats = assay: Reduced uterine perfusion pressure (RUPP) preeclampsia rat model, osmotic mini-pump infusion for 4 days; assay type: in vivo
Protocol: To evaluate the effects of the long-acting stable analog for the treatment of preeclampsia, resistant hypertension, hypertensive crisis, vascular ischemic injury, and pregnancy hypertension, we tested the analog in a reduced uterine perfusion pressure (RUPP) preeclampsia rat model. The model was first described by Dr. Joey P. Granger et al. (2000, Hypertension 37:1191-1195). Briefly, pregnant rats weighing 200-250 g at 14 days of gestation were anesthetized with pentobarbital (40 mg/kg, i.p.). The lower abdomen area was shaved and the skin was swabbed with surgical scrub (iodine and alcohol). A 3-cm skin incision was made at the midline. After a midline incision, the lower abdominal aorta was isolated and a silver clip (0.203 mm) was placed around the aorta above the iliac bifurcation. Because compensatory blood flow to the placenta occurs via an adaptive increase in […] blood flow during pregnancy, both right and left […] arcades were clipped (silver clip, 0.100 mm). RUPP rats were divided into two groups, and an osmotic mini-pump (ALZET) loaded with saline or the long-acting analog was implanted in the upper abdomen. The mini-pumps delivered the solution at a rate of 1 ul/hr. Sham pregnant rats were used as normal controls.
The incision was closed with absorbable braided surgical suture. After awake, animals were given buprenorphine 0.1 mg/kg s.c. once a day for three days. These procedures reduced uterine blood flow in the gravid rat by >40%, and cause hypertension and intrauterine growth restriction in the fetus.
After 4 days of the treatments, all rats were anesthetized and catheterized for measurement of blood pressure and heart rate. Animals were anesthetized with pentobarbital, and a Mikro-tip catheter (1.0 F pressure catheter, Miller, Tex.) was placed into the right carotid artery. After insertion, the catheter was advanced into the aorta, and stopped at the appearance of arterial pressure curve. The Mikro-tip catheter was connected to a Powerlab system, and blood pressure and heart rate was recorded and saved in a computer. In addition, the blood flow velocity above and below the artery constriction site was determined by a Doppler method.
After the hemodynamic measurement was completed (taking about 0.5-1 hr), rats were euthanized. The fetuses, placenta tissues, and hearts were harvested and weighed individually.

pregnant SHR rats = assay: Blood pressure after injection in pregnant spontaneous hypertensive rats (SHR); assay type: in vivo, rat; conditions: low dose 30 nmoles/kg
Source text: as §2

[4] = high dosage 10 μg/kg/hr for four days
[5] = low dose 3.3 μg/kg/hr for four days

adrenomedullin (YRQSMNNFQGLRSFGCRFGTCTVQKLAHQIYQFTDKDKDNVAPRSKISPQGY; ends and bridges not checked; cysteine pairing not given here; UniProt P35318 95-146, looked up) [wild-type ADM, wild-type adrenomedullin, 52 amino acids, 1 intramolecular disulfide bond, ligand of CLR/RAMP receptors, reference compound]
reduction of doxorubicin-induced loss of heart weight (C57/B6 mice [1]; co-treatment with doxorubicin 10 mg/kg, peptide injected twice daily, five days, Dox group vs. Dox+ADM group): not statistically significant
duration of sustained reduction of blood pressure (hypotensive effect) [2]: ≤ 2 h

COc1cccc2c1C(=O)c1c(O)c3c(c(O)c1C2=O)C[C@@](O)(C(=O)CO)C[C@@H]3O[C@H]1C[C@H](N)[C@H](O)[C@H](C)O1 [doxorubicin, reference compound]
average heart weight (C57/B6 mice [1]; doxorubicin 10 mg/kg body weight alone (Dox group)): 9.3 ± 0.4 mg
blood aspartate aminotransferase level (C57/B6 mice [3]; mouse, in vivo): 300.7±33.6 U/liter

Ace-K(Pal)GCRFGTCTVQKLAHQIYQFTDKDKDNVAPRSKISPQGY-NH2 (KGCRFGTCTVQKLAHQIYQFTDKDKDNVAPRSKISPQGY; N-acetyl, palmitoyl-Lys, C-terminal amide; MOD_RES (1)..(1) …ON; LIPID (1)..(1) …; MOD_RES (39)..(39) AMIDATION) [long-acting stable analog]
average fetus weight (RUPP pregnant rats; [4]): 483 ± 92 mg
average heart weight (RUPP pregnant rats; [4]): 3.16±0.06 mg per gram body weight
average placenta weight (RUPP pregnant rats; [4]): 253 ± 36 mg
body weight lost during the four-day experimental period (RUPP pregnant rats; [4]): 3±3 grams
heart rate (RUPP pregnant rats; [4]): 379±8 beats/min
mean arterial pressure (RUPP pregnant rats; [4]): 93±5 mmHg
average fetus weight (RUPP pregnant rats; [5]): 577 ± 166 mg
average placenta weight (RUPP pregnant rats; [5]): 301 ± 46 mg
mean arterial pressure (RUPP pregnant rats; [5]): 107±4 mmHg
average heart weight (C57/B6 mice [1]; co-treatment with doxorubicin 10 mg/kg, peptide injected twice daily, five days): 11.0 ± 0.6 mg
duration of hypotensive effects (pregnant SHR rats): over 8 hr
duration of sustained reduction of blood pressure (hypotensive effect) [2]: 4 h
duration of blood pressure reduction ([2]; low dose 30 nmoles/kg, pregnant Sprague Dawley rats): 2 h
blood aspartate aminotransferase level (C57/B6 mice [3]; Dox + stable analog, high dose 50 nM/Kg body weight): 200.1±10.0 U/liter
effect on doxorubicin-elevated aspartate aminotransferase level (C57/B6 mice [3]; Dox + stable analog, low dose 25 nM/Kg BW): no statistically significant effect

— patent US11701409B2, “Dosing and use of long-acting CLR/ramp agonists” (Adepthera LLC, priority 2016, dated 2023)
